“Also recorded” adds a separate entry of the source.
Tests used:
[1] = design: species or system humans; settings: human, in vivo
[2] = test system: MCF-7 human breast cancer cells; settings: cited from earlier work
[3] = in vivo
[4] = test system: rabies virus; settings: cited from earlier work
[5] = test system: rabies virus; settings: human, in vivo, cited from earlier work
[6] = in vivo; cited from earlier work
[7] = test system: activated microglia; settings: cited from earlier work
[8] = in vivo; cited from earlier work; remark: listed apart in the source
[9] = mouse, in vivo; cited from earlier work
[10] = test system: vesicular stomatitis virus; settings: cited from earlier work
[11] = test system: rabies virus; settings: cited from earlier work; remark: listed apart in the source
[12] = in vivo, iv; cited from earlier work
[13] = human, in vivo
[14] = test system: rabies virus; settings: cited from earlier work; remark: listed apart in the source
[15] = test system: HIV virus; settings: cited from earlier work
[16] = test system: herpes simplex virus; settings: cited from earlier work
[17] = test system: rabies virus; settings: in vivo; cited from earlier work
[18] = test system: poliovirus type 1; settings: cited from earlier work
[19] = in vivo; cited from earlier work; remark: listed apart in the source
[20] = in vivo; cited from earlier work; remark: listed apart in the source
[21] = test system: LPS-activated macrophages; settings: cited from earlier work
[22] = test system: rabies virus; settings: rat, in vivo; cited from earlier work

## insulin
[1]
  memory, attention, functioning, mood: improves memory, attention, and functioning
[2]
  increase of the cytotoxic effect of methotrexate by insulin: up to 10,000 fold
[3]
  hypoglycemic effects: did not develop the hypoglycemic effects

## CC[C@]1(O)C[C@@H]2CN(CCc3c([nH]c4ccccc34)[C@@](C(=O)OC)(c3cc4c(cc3OC)N(C)[C@H]3[C@@](O)(C(=O)OC)[C@H](OC(C)=O)[C@]5(CC)C=CCN6CC[C@]43[C@@H]65)C2)C1 [vinblastine]
[4]
  rabies virus transport in neurites: blocked

## NC(=O)c1ncn([C@@H]2O[C@H](CO)[C@@H](O)[C@H]2O)n1 [ribavirin]
[5]; iv
  outcome of antiviral therapy, intravenous: unsuccessful
  outcome of therapy, combined intravenous and intrathecal administration: unsuccessful

## insulin detemir
[6]
  Effective duration of action: 14 h
  Maximum duration: ~20 h
  Onset of Action: 3 to 4 h
  Peak Action: 6 to 8 h

## insulin lispro [IInsulin lispro]
[6]
  Effective duration of action: 3 to 4 h
  Maximum duration: 4 to 6 h
  Onset of Action: ¼-½
  Peak Action: ½-1¼

## COc1cc(/C=C/C(=O)CC(=O)/C=C/c2ccc(O)c(OC)c2)ccc1O [curcumin]
[7]
  mRNA and protein levels of inducible nitric oxide synthase (iNOS): suppresses

## cytochalasin
[4]
  rabies virus transport in neurites: blocked

## S [hydrogen sulfide]
[8]
  borderline concentration for eye irritation: 10-20 ppm
  concentration at which olfactory nerve is paralyzed after a few inhalations: 100-150 ppm
  concentration causing immediate collapse with loss of breathing: over 1000 ppm
  concentration causing strong CNS stimulation, rapid breathing, loss of breathing: 530-1000 ppm
  concentration leading to eye damage: 50-100 ppm
  concentration leading to pulmonary edema with possibility of death: 320-530 ppm
  concentration with exposure limit of 8 hours per day: Less than 10 ppm
  lethal concentration for 50% of humans (LC50): 800 ppm
[9]
  blood pressure: did not significantly decrease
  health consequences afterwards: no negative health consequences

## insulin aspart
[6]
  Effective duration of action: 3 to 4 h
  Maximum duration: 4 to 6 h
  Onset of Action: ¼-½
  Peak Action: ½-1¼

## CNC1(c2ccccc2Cl)CCCCC1=O (stereo not shown) [ketamine]
[10]
  replication of vesicular stomatitis virus: doesn't affect replication
[11]
  ketamine therapy of rabies in experimental studies: poor and disappointing
[5]
  outcome of rabies therapy with ketamine and induced coma: failed to save the patient's life
[12]
  treatment of hiccup: effectively
[13]
  initial cardiovascular effects: tachycardia and elevated blood pressure
[14]
  rabies virus infection in primary neuron cultures: inhibited
  reduction in the levels of rabies virus mRNAs relative to untreated neurons: 5- to 11 fold
  viral nucleoprotein and glycoprotein syntheses: inhibited
[15]
  replication of HIV virus: doesn't affect replication
[16]
  replication of herpes simplex virus: doesn't affect replication
[17]
  rabies virus infection/spread in rat brain: restricted viral spread; also recorded: reduced
[18]
  replication of poliovirus type 1: doesn't affect replication

## biopterin
[19]
  post recovery paresis symptoms: relieved

## NPH (isophane) insulin
[6]
  Effective duration of action: 10 to 16 h
  Maximum duration: 14 to 18 h
  Onset of Action: 2 to 4 h
  Peak Action: 6 to 10 h

## insulin glargine
[6]
  Effective duration of action: 18 to 20 h
  Maximum duration: 20 to 24 h
  Onset of Action: 3 to 4 h
  Peak Action: 8 to 16 h

## regular (soluble) insulin
[6]
  Effective duration of action: 3 to 6 h
  Maximum duration: 6 to 8 h
  Onset of Action: ½-1
  Peak Action: 2 to 3 h

## C[C@]12CCC(=O)C=C1CC[C@@H]1[C@@H]2[C@@H](O)C[C@@]2(C)[C@H]1CC[C@]2(O)C(=O)CO [cortisol]
[7]
  release of TNF-alpha from LPS-treated microglial cells: inhibits

## C[C@]12CC[C@@H]3c4ccc(O)cc4CC[C@H]3[C@@H]1C[C@@H](O)[C@@H]2O [Estriol]
[7]
  NO and TNF-alpha production by activated microglia: inhibits

## CC(C)c1cccc(C(C)C)c1O [propofol]
[20]
  time to waking when not administered continuously: 5 to 10 min
[21]
  LPS-induced NO biosynthesis: significantly inhibited
  levels of LPS-enhanced TNF-alpha, IL-1 beta, and IL-6 proteins: significantly reduced

## interferon-Alfa
[5]; iv
  outcome of therapy, combined intravenous and intrathecal administration: unsuccessful

## CC(=O)[C@H]1CC[C@H]2[C@@H]3CCC4=CC(=O)CC[C@]4(C)[C@H]3CC[C@]12C [progesterone]
[7]
  NO and TNF-alpha production by activated microglia: inhibits

## insulin glulisine
[6]
  Effective duration of action: 3 to 4 h
  Maximum duration: 4 to 6 h
  Onset of Action: ¼-½
  Peak Action: ½-1¼

## COc1cc2c(c(OC)c1OC)-c1ccc(OC)c(=O)cc1[C@@H](NC(C)=O)CC2 [colchicine]
[22]
  day post-infection until which no fluorescent foci could be detected: 3 days
[4]
  rabies virus transport in neurites: blocked

## C[C@]12N[C@H](Cc3ccccc31)c1ccccc12 [MK-801]
[14]
  rabies virus infection in primary neuron cultures: inhibited

## Oc1ccc(/C=C/c2cc(O)cc(O)c2)cc1 [Resveratol]
[7]
  NO and TNF-alpha production by activated microglia: inhibits

Source: patent US20110020279A1 (priority 2010, published 2011)
